Data reported in ChEMBL document CHEMBL1221163, “Monocarboxylate transporter MCT1 is a target for immunosuppression” (Nat Chem Biol, 2005).
Activity calls are given as the source filed them. No cut-off for these calls is given here.

Key:
[1] = tested on: T-cell; conditions: Homo sapiens, 10 uM
[2] = tested on: PANC-1; experiment: Antiproliferative activity against human PANC1 cells assessed as inhibition of cell proliferation at 1 uM by fluorimetric assay; type: functional
[3] = tested on: PANC-1; experiment: Antiproliferative activity against human PANC1 cells assessed as inhibition of cell proliferation by fluorimetric assay; type: functional, cell-based
[4] = tested on: HUVEC; experiment: Antiproliferative activity against human HUVEC assessed as inhibition of acidic FGF-stimulated cell proliferation at 1 uM by fluorimetric assay; type: functional
[5] = tested on: SW480; experiment: Antiproliferative activity against human SW480 cells assessed as inhibition of cell proliferation at 1 uM by fluorimetric assay; type: functional
[6] = Antiproliferative activity against human primary epidermal keratinocytes assessed as inhibition of cell proliferation by fluorimetric assay; type: functional, cell-based; conditions: Keratinocyte
[7] = tested on: T-cell; experiment: Increase in intracellular lactate production in PMA-ionomycin stimulated human T cells after 4 hrs; type: functional, cell-based
[8] = tested on: SW480; experiment: Antiproliferative activity against human SW480 cells assessed as inhibition of cell proliferation by fluorimetric assay; type: functional, cell-based
[9] = tested on: THP-1; experiment: Antiproliferative activity against human THP1 cells assessed as inhibition of cell proliferation at 1 uM by fluorimetric assay; type: functional
[10] = Antiproliferative activity against human primary epidermal keratinocytes assessed as inhibition of cell proliferation at 1 uM by fluorimetric assay; type: functional; conditions: Keratinocyte
[11] = tested on: T-cell; conditions: Homo sapiens, 50 nM
[12] = Antiproliferative activity against human T cells assessed as inhibition of PMA-ionomycin stimulated cell proliferation after 3 days by [3H]thymidine incorporation assay; type: functional, cell-based
[13] = tested on: HEK293; experiment: Antiproliferative activity against HEK293 cells assessed as inhibition of cell proliferation by fluorimetric assay; type: functional, cell-based; conditions: Homo sapiens
[14] = tested on: T-cell; experiment: Antiproliferative activity against Lewis rat T cells assessed as inhibition of PMA-ionomycin stimulated cell proliferation by [3H]thymidine incorporation assay; type: functional, cell-based
[15] = molecular target: T1, Monocarboxylate transporter 3 (Homo sapiens) (UniProt O95907); experiment: Inhibition of human MCT3 expressed in INS1 cells assessed as reduction in intracellular acidification at 100 nM after 1 hr by L-Lactate uptake based BCECF staining; type: cell-based
T1 sequence (whole entry): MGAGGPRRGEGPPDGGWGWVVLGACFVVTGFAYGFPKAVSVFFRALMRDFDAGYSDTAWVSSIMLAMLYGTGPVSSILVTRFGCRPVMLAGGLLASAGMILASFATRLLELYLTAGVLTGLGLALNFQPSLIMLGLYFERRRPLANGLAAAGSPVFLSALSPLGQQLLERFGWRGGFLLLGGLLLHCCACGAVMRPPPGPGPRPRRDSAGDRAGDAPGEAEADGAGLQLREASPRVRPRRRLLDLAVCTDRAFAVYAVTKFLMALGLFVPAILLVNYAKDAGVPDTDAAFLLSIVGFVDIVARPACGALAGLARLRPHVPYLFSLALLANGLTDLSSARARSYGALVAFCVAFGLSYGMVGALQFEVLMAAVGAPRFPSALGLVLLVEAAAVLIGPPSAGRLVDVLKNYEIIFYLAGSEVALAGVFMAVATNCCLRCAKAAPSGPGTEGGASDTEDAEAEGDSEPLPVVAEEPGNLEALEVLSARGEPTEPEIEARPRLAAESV

[16] = tested on: HT-29; experiment: Antiproliferative activity against human HT-29 cells assessed as inhibition of cell proliferation at 1 uM by fluorimetric assay; type: functional
[17] = Antiproliferative activity against human KIT225 cells assessed as inhibition of IL2-stimulated cell proliferation at 1 uM by fluorimetric assay; type: functional
[18] = tested on: T-cell; experiment: Inhibition of conversion of [1,2-13C2]glucose into [2,3-13C2]lactate in PMA-ionomycin stimulated human T cells at 10 nM after 6 hrs by GC-MS method; type: functional, cell-based
[19] = tested on: K562; experiment: Antiproliferative activity against human K562 cells assessed as inhibition of cell proliferation at 1 uM by fluorimetric assay; type: functional
[20] = tested on: PBMC; experiment: Antiproliferative activity against human PBMC assessed as inhibition of PMA/ionomycin-stimulated cell proliferation by [3H]thymidine incorporation assay; type: functional, cell-based
[21] = tested on: T-cell; experiment: Antiproliferative activity against human T cells assessed as inhibition of PMA-ionomycin stimulated cell proliferation by [3H]thymidine incorporation assay; type: functional, cell-based
[22] = tested on: T-cell; conditions: Homo sapiens, 10 uM; remark: listed apart in the source
[23] = tested on: HUVEC; experiment: Antiproliferative activity against human HUVEC assessed as inhibition of basic FGF-stimulated cell proliferation by fluorimetric assay; type: functional, cell-based
[24] = molecular target: T2, Monocarboxylate transporter 4 (Homo sapiens) (UniProt O15427); experiment: Inhibition of human MCT4 expressed in INS1 cells assessed as reduction in intracellular acidification at 100 nM after 1 hr by L-Lactate uptake based BCECF staining; type: cell-based
T2 sequence (whole entry): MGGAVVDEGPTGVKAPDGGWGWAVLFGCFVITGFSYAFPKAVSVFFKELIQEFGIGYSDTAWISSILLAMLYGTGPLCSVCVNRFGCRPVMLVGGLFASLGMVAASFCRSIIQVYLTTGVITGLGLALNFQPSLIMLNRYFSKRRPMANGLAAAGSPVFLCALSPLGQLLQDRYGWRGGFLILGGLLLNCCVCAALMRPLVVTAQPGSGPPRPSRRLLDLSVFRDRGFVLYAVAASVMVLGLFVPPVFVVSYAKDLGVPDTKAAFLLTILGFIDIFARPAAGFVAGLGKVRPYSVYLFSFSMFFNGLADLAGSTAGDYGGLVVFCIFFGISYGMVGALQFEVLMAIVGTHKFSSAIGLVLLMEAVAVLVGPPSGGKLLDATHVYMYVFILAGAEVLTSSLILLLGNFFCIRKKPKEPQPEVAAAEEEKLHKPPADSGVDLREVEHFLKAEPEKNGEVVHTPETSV

[25] = tested on: THP-1; experiment: Antiproliferative activity against human THP1 cells assessed as inhibition of cell proliferation by fluorimetric assay; type: functional, cell-based
[26] = tested on: HUVEC; experiment: Antiproliferative activity against human HUVEC assessed as inhibition of basic FGF-stimulated cell proliferation at 1 uM by fluorimetric assay; type: functional
[27] = tested on: HUVEC; experiment: Antiproliferative activity against human HUVEC assessed as inhibition of acidic FGF-stimulated cell proliferation by fluorimetric assay; type: functional, cell-based
[28] = tested on: T-24; experiment: Antiproliferative activity against human T24 cells assessed as inhibition of cell proliferation at 1 uM by fluorimetric assay; type: functional
[29] = species on record: Rattus norvegicus; conditions: DA/Lewis, 4 mg/kg
[30] = tested on: Rattus norvegicus; experiment: Inhibition of graft-versus-host response-induced lymph node expansion in DA/Lewis recipient rat administered once daily through subcutaneous route; type: functional; conditions: sc
[31] = tested on: T-24; experiment: Antiproliferative activity against human T24 cells assessed as inhibition of cell proliferation by fluorimetric assay; type: functional, cell-based
[32] = tested on: HEK293; experiment: Antiproliferative activity against HEK293 cells assessed as inhibition of cell proliferation at 1 uM by fluorimetric assay; type: functional; conditions: Homo sapiens
[33] = tested on: K562; experiment: Antiproliferative activity against human K562 cells assessed as inhibition of cell proliferation by fluorimetric assay; type: functional, cell-based
[34] = Antiproliferative activity against human KIT225 cells assessed as inhibition of IL2-stimulated cell proliferation by fluorimetric assay; type: functional, cell-based
[35] = tested on: ZR-75-1; experiment: Antiproliferative activity against human ZR-75-1 cells assessed as inhibition of cell proliferation at 1 uM by fluorimetric assay; type: functional
[36] = tested on: ZR-75-1; experiment: Antiproliferative activity against human ZR-75-1 cells assessed as inhibition of cell proliferation by fluorimetric assay; type: functional, cell-based
[37] = tested on: HT-29; experiment: Antiproliferative activity against human HT-29 cells assessed as inhibition of cell proliferation by fluorimetric assay; type: functional, cell-based

## CC(C)Cn1c(=O)n(C)c(=O)c2c(SCCCO)c(Cc3cccc4ccccc34)sc21
[1]
  inhibition: inactive
[2]
  inhibition at 1 µM: < 20%
[3]
  IC50: > 1000 nM
[4]
  inhibition at 1 µM: < 20%
[5]
  inhibition at 1 µM: < 20%
[6]
  IC50: > 1000 nM
[7]
  IC50: 0.407 nM
[8]
  IC50: > 1000 nM
[9]
  inhibition at 1 µM: < 20%
[10]
  inhibition at 1 µM: < 20%
[11]
  inhibition: Active
[12]
  IC50: 0.234 nM
[13]
  IC50: > 1000 nM
[14]
  inhibition: Active
[15]
  inhibition: inactive
[16]
  inhibition at 1 µM: < 20%
[17]
  inhibition at 1 µM: 61%
[18]
  inhibition: Active
[19]
  inhibition at 1 µM: < 20%
[20]
  inhibition: Active
[21]
  inhibition: Active
[22]
  inhibition: inactive
[23]
  IC50: > 1000 nM
[24]
  inhibition: inactive
[25]
  IC50: > 1000 nM
[26]
  inhibition at 1 µM: < 20%
[27]
  IC50: > 1000 nM
[28]
  inhibition at 1 µM: < 20%
[29]
  inhibition: Active
[30]
  ED50: 1.4 mg/kg/day
[31]
  IC50: > 1000 nM
[32]
  inhibition at 1 µM: < 20%
[33]
  IC50: > 1000 nM
[34]
  IC50: 1.1 nM
[35]
  inhibition at 1 µM: < 20%
[36]
  IC50: > 1000 nM
[37]
  IC50: > 1000 nM
